≈ marks a conversion by molar mass, not a printed value. Entries after “also recorded” stand apart in the source; their conditions may differ.
Columns and labels:
CV ion channels = assay: CV ion channel EP panel; format: cell-based; conditions: result in words
[1] = predicted hepatic clearance (cyno); format: in vitro ADME; conditions: cyno (c)
Method: After a 5 min preincubation, the reaction was initiated by the addition of NADPH (1 mM). At selected time intervals (0, 3, 7, 15, 25, and 45 min), aliquots were taken and subsequently placed into a 96-well plate containing cold acetonitrile with internal standard (50 ng/mL carbamazepine). Plates were then centrifuged at 3000 rcf (4 °C) for 10 min, and the supernatant was transferred to a separate 96-well plate and diluted 1:1 with water for LC/MS/MS analysis. The in vitro half-life ( 1/2, min, Eq. 1), intrinsic clearance (CLint, mL/min/kg, Eq. 2), and subsequent predicted hepatic clearance (CLhep, mL/min/kg, Eq. 3) was determined employing the […]
where k represents the slope from linear regression analysis of the natural log percent remaining of a test compound as a function of incubation time […]
(2) CLint = in vitroT x mg microsomes x gram liver x kg body wt ascale-up factors: of 20 (human) or 45 (rat) […]
where Qh (hepatic blood flow, mL/min/kg) is 21 (human) or 70 (rat).
LC/MS/MS Bioanalysis of Samples from Plasma Protein Binding and Intrinsic Clearance […]
Samples were analyzed on a Thermo Electron TSQ Quantum Ultra triple quad mass spectrometer (San Jose, CA) via electrospray ionization (ESI) with two Themo Electron Accella pumps (San Jose, CA), and a Leap Technologies CTC PAL autosampler (Carrboro, NC). […]

[2] = solubility in simulated gastric fluid (FaSSGF); format: physicochemical; conditions: fassgf or other biorelevant
GABAA, Muscimol, Central = assay: Eurofins radioligand binding; conditions: Rat
Sprague-Dawley rats = assay: contextual fear conditioning (CFC); format: in vivo, rat
Method: Contextual Fear Conditioning
Contextual Fear Conditioning. Studies were conducted using conditioning chambers in sound attenuating cubicles equipped with a stainless steel grid floor for shock delivery and a video camera for recording freezing behavior (Med Associates, Fairfax, Vermont). Rats were acclimated to the apparatus for 3 days (10 minutes each day) prior to conditioning. On the training (conditioning) day, rats were pretreated by oral gavage with Vehicle (10% Tween 80) or Compound X […]
conditioning chamber that contained 1 mL 10% vanilla extract as odor cue.2 After a 180-sec

Structure (SMILES)	activity in CV ion channel EP panel (CV ion channels)	Predicted CLhep [1] [mL/min/kg]	solubility [2] [µg/mL]	% Inhibition at 10 µM (GABAA, Muscimol, Central) [%]	total brain concentration at CFC MED (Sprague-Dawley rats; 0.3 mg/kg PO, rat) [nM]	effect on acquisition of CFC (Sprague-Dawley rats; 0.03-3 mg/kg PO, result in words)	minimum effective dose (MED) in rat CFC (Sprague-Dawley rats; PO, 10% Tween 80 in water, male Sprague-Dawley rats) [mg/kg]
Cn1cc2c(-c3cc(F)c(CN4Cc5ncccc5C4=O)c(F)c3)ccc(C(C)(C)O)c2n1 [compound 7]	no significant activities	17.7	24.8 (≈ 55.3 µM)	-10	58	robust dose-dependent enhancement in the acquisition of contextual fear conditioning; also recorded: dose-dependently enhanced the acquisition of CFC	0.3
Cn1cc2c(-c3cc(F)c(CN4Cc5ncccc5C4=O)c(F)c3)cccc2n1 [compound 1, reference compound]		5.6	36 (≈ 92.2 µM)				

Source: article PMC12715762, “Discovery of VU6052254: A Novel, Potent M1 Positive Allosteric Modulator” (ACS Chemical Neuroscience, 2025)
